Data reported in patent US9670261B2 (Sanofi, priority 2012, dated 2017).
*1 amine or outer side, *2 acyl side, *3 side chain or, on linkers, in order; H or OH if unused. Where a SMILES comes first, the peptide text is derived from it. Side-chain parts run from the residue outwards. [ ]: non-standard residue; d: D form. The star is where a group is joined. γGlu = O=C(O)[C@H](CCC(=O)[*:2])N[*:1]; Palmitoyl = CCCCCCCCCCCCCCCC(=O)*; Aib = CC(C)(N)C(=O)O

What was measured:
human GLP-1 receptor = target: T1, human GLP-1 receptor (Homo sapiens, UniProt P43220); experiment: cAMP response (HTRF) of HEK-293 cells stably expressing human GLP-1 receptor; assay type: cell-based; conditions: Table 7; cAMP formation; read-out: EC50 hGLP-1 R
T1 construct: expressed in transfected cells
T1 sequence (P43220 24-463): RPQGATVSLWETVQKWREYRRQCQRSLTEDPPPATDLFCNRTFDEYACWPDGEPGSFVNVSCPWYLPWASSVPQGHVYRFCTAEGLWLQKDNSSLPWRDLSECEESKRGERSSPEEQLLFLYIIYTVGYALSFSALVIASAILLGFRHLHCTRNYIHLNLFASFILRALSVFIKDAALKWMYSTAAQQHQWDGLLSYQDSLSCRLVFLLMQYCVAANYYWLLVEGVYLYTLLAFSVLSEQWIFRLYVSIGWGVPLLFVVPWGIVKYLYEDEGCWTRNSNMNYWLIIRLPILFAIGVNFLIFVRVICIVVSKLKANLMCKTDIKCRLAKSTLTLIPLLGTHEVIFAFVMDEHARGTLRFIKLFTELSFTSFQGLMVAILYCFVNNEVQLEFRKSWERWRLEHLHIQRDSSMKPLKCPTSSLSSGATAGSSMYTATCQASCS
How it was run: (§1)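 After near-confluent growth in DMEM with 10% FBS, cells were washed in Ca/Mg-free PBS, lifted with accutase and diluted to 400000 cells/ml in IBMX (2 mM)-containing HEPES-buffered HBSS with 0.1% BSA. Compounds were applied for 30 minutes at room temperature before homogeneous time-resolved fluorescence quantitation of cAMP.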

human GIP receptor = target: T2, human GIP receptor (Homo sapiens, UniProt P48546); experiment: cAMP response (HTRF) of HEK-293 cells stably expressing human GIP receptor; assay type: cell-based; conditions: Table 7; cAMP formation; read-out: EC50 hGIP R
T2 construct: expressed in transfected cells
T2 sequence (P48546 22-466): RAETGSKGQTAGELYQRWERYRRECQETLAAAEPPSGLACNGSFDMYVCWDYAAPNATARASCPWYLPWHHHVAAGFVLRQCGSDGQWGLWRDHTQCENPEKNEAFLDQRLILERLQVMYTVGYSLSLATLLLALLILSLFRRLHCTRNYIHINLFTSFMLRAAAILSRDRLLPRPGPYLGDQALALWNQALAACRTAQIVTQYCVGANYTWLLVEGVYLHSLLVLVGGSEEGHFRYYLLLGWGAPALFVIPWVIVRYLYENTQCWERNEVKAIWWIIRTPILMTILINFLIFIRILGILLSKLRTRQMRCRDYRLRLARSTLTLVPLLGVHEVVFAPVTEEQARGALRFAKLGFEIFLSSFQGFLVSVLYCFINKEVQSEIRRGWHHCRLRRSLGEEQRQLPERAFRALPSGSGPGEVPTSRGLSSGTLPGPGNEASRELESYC
How it was run: as §1

[1] = Pharmacokinetic testing in Göttinger minipigs, s.c.; assay type: in vivo; conditions: female, minipig, plasma, sc, Mini pigs, 0.1 mg/kg s.c.
Description: Female Göttinger minipigs were dosed 0.1 mg/kg subcutaneously (s.c.). Blood samples were collected after 0.25, 0.5, 1, 2, 4, 8, 24, 32, 48, 56 and 72 hours post application. Plasma samples were analyzed after protein precipitation via liquid chromatography mass spectrometry (LC/MS). PK parameters and half-life were calculated using WinonLin Version 5.2.1 (non-compartment model).

[2] = test system: female diet-induced obese (DIO) C57BL/6NCrl mice; experiment: Blood glucose and body weight in DIO mice, 18 weeks on high-fat diet (method 1); assay type: in vivo; conditions: for decrease of body weight, relative change from baseline: 4 weeks; for Bodyfat change / Overall weight change: 4-week treatment, mean ± SEM
Description: Female C57BL/6NCrl mice were housed in groups in a specific pathogen-free barrier facility on a 12 h light/dark cycle with free access to water and high-fat diet. After 18 weeks on high-fat diet, mice were stratified to treatment groups (n=8), so that each group had similar mean body weight. An aged-matched group with ad libitum access to standard chow was included as standard control group.
Before the experiment, mice were subcutaneously (s.c.) injected with vehicle solution and weighed for 3 days to acclimate them to the procedures.
The volume of administration was 5 mL/kg. The animals had access to water and their corresponding diet during the experiment, food consumption was determined at all time points of blood sampling. Blood glucose levels were measured at t=0.5 h, t=1 h, t=2 h, t=4 h, t=6 h, t=8 h, and t=24 h (method: d-glucose hexokinase, hemolysate, AU640 Beckman Coulter). Blood sampling was performed by tail incision without anaesthesia.
Body weight was recorded daily. On days 6 and 28, total fat mass was measured by nuclear magnetic resonance (NMR) using a Bruker minispec (Ettlingen, Germany).
Statistical analyses were performed with Everstat 6.0 by repeated measures two-way ANOVA and Dunnett's post-hoc analyses (glucose profile) and 1-way-ANOVA, followed by Dunnett's post-hoc test (body weight, body fat). Differences versus vehicle-treated DIO control mice were considered statistically significant at the p<0.05 level.
Diet-induced obese female C57BL/6NCrl mice were administered daily in the afternoon, at the end of the light phase (12 h lights on) with 10, 30 and 100 μg/kg of SEQ ID NO: 9 or phosphate buffered solution (vehicle control on standard or high-fat diet) subcutaneously. On day 6 of treatment and at predefined time points, more blood samples were taken to measure blood glucose and generate the blood glucose profile over 24 h.
Female obese C57BL/6NCrl mice were treated for 4 weeks once daily subcutaneously in the afternoon, at the end of the light phase (12 h lights on) with 10, 30 or 100 μg/kg SEQ ID NO: 9 or vehicle. Body weight was recorded daily, and body fat content was determined before the start of treatment and after 4 weeks of treatment.

[3] = Solubility testing in buffer (HPLC-UV); conditions: buffer

CCCCCCCCCCCCCCCC(=O)N[C@@H](CCC(=O)NCCCC[C@H](NC(=O)[C@H](CCC(N)=O)NC(=O)[C@@H](NC(=O)[C@H](CO)NC(=O)[C@H](CC(C)C)NC(=O)[C@H](CC(=O)O)NC(=O)[C@H](CO)NC(=O)[C@@H](NC(=O)[C@H](Cc1ccccc1)NC(=O)[C@@H](NC(=O)CNC(=O)[C@H](CCC(=O)O)NC(=O)C(C)(C)NC(=O)[C@@H](N)Cc1ccc(O)cc1)[C@@H](C)O)[C@@H](C)O)[C@@H](C)CC)C(=O)N[C@@H](CCC(=O)O)C(=O)N[C@@H](CCCCN)C(=O)N[C@@H](CCCNC(=N)N)C(=O)N[C@@H](C)C(=O)N[C@@H](C)C(=O)NC(C)(C)C(=O)N[C@@H](CCC(=O)O)C(=O)N[C@@H](Cc1ccccc1)C(=O)N[C@H](C(=O)N[C@@H](CCC(=O)O)C(=O)N[C@@H](Cc1c[nH]c2ccccc12)C(=O)N[C@@H](CC(C)C)C(=O)N[C@@H](CCCCN)C(=O)N[C@@H](CC(N)=O)C(=O)N[C@H](C(=O)NCC(=O)N1CCC[C@H]1C(=O)N[C@@H](CO)C(=O)N[C@@H](CO)C(=O)NCC(=O)N[C@@H](C)C(=O)N1CCC[C@H]1C(=O)N1CCC[C@H]1C(=O)N1CCC[C@H]1C(=O)N[C@@H](CO)C(N)=O)[C@@H](C)O)[C@@H](C)CC)C(=O)O [SEQ ID NO: 9, Y-Aib-E-G-T-F-T-S-D-L-S-I-Q-K(γE-x53)-E-K-R-A-A-Aib-E-F-I-E-W-L-K-N-T-G-P-S-S-G-A-P-P-P-S-NH2] (H-Y[Aib]EGTFTSDLSIQK([γGlu-Palmitoyl])EKRAA[Aib]EFIEWLKNTGPSSGAPPPS-NH2)
EC50 (human GLP-1 receptor): 3.6 pM
EC50 (human GIP receptor): 5.7 pM
Cmax [1]: 278 ng/mL
half-life [1]: 12.2 h
decrease of body weight, relative change from baseline ([2]; 10 μg/kg s.c. once daily): 13.3-16.4%
Bodyfat change ([2]; 10 μg/kg): -4.2 ± 0.4 g
Overall weight change ([2]; 10 μg/kg): -5.0 ± 0.5 g
decrease of body weight, relative change from baseline ([2]; 30 μg/kg s.c. once daily): 17.6-20.9%
Bodyfat change ([2]; 30 μg/kg): -6.1 ± 0.4 g
Overall weight change ([2]; 30 μg/kg): -6.9 ± 0.5 g
decrease of body weight, relative change from baseline ([2]; 100 μg/kg s.c. once daily): 21.7-22.7%
Bodyfat change ([2]; 100 μg/kg): -6.4 ± 0.5 g
Overall weight change ([2]; 100 μg/kg): -7.3 ± 0.6 g
basal blood glucose levels compared to DIO control mice ([2]; day 6 of treatment, 10, 30 and 100 μg/kg s.c. daily): dose-dependently decreased
solubility at 2 h ([3]; pH 4.5): > 1000 µg/mL
solubility at 2 h ([3]; pH 7.4): > 1000 µg/mL
